Test system: patients suffering from chronic nonbacterial prostatitis
Experiment: Double-blind, placebo-controlled study of a substance P antagonist in patients suffering from chronic nonbacterial prostatitis
Type: in vivo, human
Conditions: 30 mg/day; assessed by immunological profile, rating scales, checklists and diminishment of the attendant disease state
Protocol: Double-Blind, Placebo-Controlled Study to Determine the Effect of a Substance P Antagonist on Patients Suffering from Chronic Nonbacterial Prostatitis Approximately twenty patients diagnosed as suffering from chronic nonbacterial prostatitis receive either the substance P receptor antagonist 2-(R)-(1-(R)-(3,5-bis(trifluoromethyl)-phenyl)-ethoxy)-3-(S)-(4-fluoro-phenyl)-4-(3-(5-oxo-1H,4H-1,2,4-triazolo)methyl-morpholine (30 mg/day) or a placebo. Each subject participates in 6 randomized test periods; in 3 of the test periods, each is given the substance P antagonist and in the other 3 test periods, is given a placebo. Efficacy of the test compound is assessed by reference to immunological profile, rating scales, checklists and diminishment of the attendant disease state.

C[C@@H](O[C@H]1OCCN(Cc2n[nH]c(=O)[nH]2)[C@H]1c1ccc(F)cc1)c1cc(C(F)(F)F)cc(C(F)(F)F)c1 [2-(R)-(1-(R)-(3,5-bis(trifluoromethyl)-phenyl)-ethoxy)-3-(S)-(4-fluoro-phenyl)-4-(3-(5-oxo-1H,4H-1,2,4-triazolo)methyl-morpholine]
effect with respect to placebo in the treatment or prevention of chronic nonbacterial prostatitis: positive effect with respect to placebo
